Source: US20100093714A1, “AMIDES OF THIENO[2,3-d]PYRIMIDINE AND THEIR USE AS ADENOSINE A2a RECEPTOR ANTAGONISTS” (priority 2008, published 2010)
Where a name gives a salt, the structure may show the parent alone.

Assays:
[1] = molecular target: T1, human adenosine A2a receptor (Homo sapiens, UniProt P29274); assay: Adenosine A2a Receptor Functional Assay (A2AGAL2); assay type: cell-based; conditions: CHO-K1 cells, cAMP inducible beta-galactosidase reporter, 15 nM NECA agonist challenge
T1 construct: expressed in transfected cells; host or cells: CHO-K1
T1 sequence (P29274 whole entry): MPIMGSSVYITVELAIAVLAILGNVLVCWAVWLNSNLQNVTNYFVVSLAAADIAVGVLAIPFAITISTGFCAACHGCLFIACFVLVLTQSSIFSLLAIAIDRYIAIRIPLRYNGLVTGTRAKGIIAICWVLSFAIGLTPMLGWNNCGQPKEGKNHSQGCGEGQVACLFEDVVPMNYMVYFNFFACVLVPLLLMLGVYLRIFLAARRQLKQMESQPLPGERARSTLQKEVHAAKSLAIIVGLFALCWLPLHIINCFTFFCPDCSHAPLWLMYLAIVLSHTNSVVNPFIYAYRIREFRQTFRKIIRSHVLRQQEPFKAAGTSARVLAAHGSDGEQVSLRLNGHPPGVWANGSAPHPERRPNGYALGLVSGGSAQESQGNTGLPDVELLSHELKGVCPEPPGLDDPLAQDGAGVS
Protocol: (§1) To initiate the functional assay, cryopreserved CHO-K1 cells overexpressing the human adenosine A2a receptor and containing a cAMP inducible beta-galactosidase reporter gene were thawed, centrifuged, DMSO containing media removed, and then seeded with fresh culture media into clear 384-well tissue culture treated plates (BD #353961) at a concentration of 10K cells/well. Prior to assay, these plates were cultured for two days at 37° C., 5% CO2, 90% Rh. On the day of the functional assay, culture media was removed and replaced with 45 uL assay medium (Hams/F-12 Modified (Mediatech #10-080CV) supplemented w/0.1% BSA). Test compounds were diluted and 11 point curves created at a 1000× concentration in 100% DMSO. Immediately after addition of assay media to the cell plates, 50 nL of the appropriate test compound antagonist or agonist control curves were added to cell plates using a Cartesian Hummingbird. Compound curves were allowed to incubate at room temperature on cell plates for approximately 15 minutes before addition of a 15 nM NECA (Sigma E2387) agonist challenge (5 uL volume). A control curve of NECA, a DMSO/Media control, and a single dose of Forskolin (Sigma F3917) were also included on each plate. After additions, cell plates were allowed to incubate at 37° C., 5% CO2, 90% Rh for 5.5-6 hours. After incubation, media was removed, and cell plates were washed 1×50 uL with DPBS w/o Ca & Mg (Mediatech 21-031-CV). Into dry wells, 20 uL of 1× Reporter Lysis Buffer (Promega E3971 (diluted in dH2O from 5× stock)) was added to each well and plates frozen at −20° C. overnight. For β-galactosidase enzyme calorimetric assay, plates were thawed out at room temperature and 20 μL 2× assay buffer (Promega) was added to each well. Color was allowed to develop at 37° C., 5% CO2, 90% Rh for 1-1.5 h or until reasonable signal appeared. The calorimetric reaction was stopped with the addition of 60 μL/well 1M sodium carbonate. Plates were counted at 405 nm on a SpectraMax Microplate Reader (Molecular Devices). Data was analyzed in Microsoft Excel and IC/EC50 curves were fit using a standardized macro.

[2] = molecular target: T2, human adenosine A1 receptor (Homo sapiens, UniProt P30542); assay: Adenosine A1 Receptor Functional Assay (A1GAL2); assay type: cell-based; conditions: CHO-K1 cells, cAMP inducible beta-galactosidase reporter, 4nM r-PIA/1 uM Forskolin agonist challenge
T2 construct: expressed in transfected cells; host or cells: CHO-K1
T2 sequence (P30542 1-326): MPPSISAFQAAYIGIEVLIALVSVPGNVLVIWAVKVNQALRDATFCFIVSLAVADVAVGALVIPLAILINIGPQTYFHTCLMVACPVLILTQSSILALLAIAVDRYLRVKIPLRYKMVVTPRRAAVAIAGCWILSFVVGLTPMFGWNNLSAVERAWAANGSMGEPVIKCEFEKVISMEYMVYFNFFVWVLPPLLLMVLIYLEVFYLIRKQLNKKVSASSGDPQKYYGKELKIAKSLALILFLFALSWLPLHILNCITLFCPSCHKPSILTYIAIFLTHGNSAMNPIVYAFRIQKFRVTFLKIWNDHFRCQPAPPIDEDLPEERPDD
Protocol: as §1, with “A1” for “A2a”, “4nM r-PIA” for “15 nM NECA”, “P4532)/1 uM Forskolin (Sigma F3917)” for “E2387)”, “r-PIA in 1 uM Forskolin,” for “NECA,”, “Forskolin” for “Forskolin (Sigma F3917)”

SMILES	Ki [1] [nM]	Ki [2] [nM]
CC(C)(C)N1CCN(C(=O)c2cc3c(N)nc(-c4ccc(C5CC5)o4)nc3s2)CC1 [Example 32, [4-Amino-2-(5-cyclopropyl-furan-2-yl)-thieno[2,3-d]pyrimidin-6-yl]-(4-tert-butyl-piperazin-1-yl)-methanone]	1240	> 1040
Cc1csc(-c2nc(N)c3cc(C(=O)NC4CCOCC4)sc3n2)n1 [Example 12, 4-Amino-2-(4-methyl-thiazol-2-yl)-thieno[2,3-d]pyrimidine-6-carboxylic acid(tetrahydro-pyran-4-yl)-amide]	21.9	443
Nc1nc(-c2ncco2)nc2sc(C(=O)NC3CCOCC3)cc12 [Example 13, 4-Amino-2-oxazol-2-yl-thieno[2,3-d]pyrimidine-6-carboxylic acid(tetrahydro-pyran-4-yl)-amide]	99.2	> 1000
C[C@@H]1CN(C(=O)c2cc3c(N)nc(-c4cccc(C#N)c4)nc3s2)C[C@H](C)O1 [Example 1, 3-[4-Amino-6-(2,6-dimethyl-morpholine-4-carbonyl)-thieno[2,3-d]pyrimidin-2-yl]-benzonitrile]	184	598
Cc1csc(-c2nc(N)c3cc(C(=O)NCc4ccc(Cl)nc4)sc3n2)n1 [Example 20, 4-Amino-2-(4-methyl-thiazol-2-yl)-thieno[2,3-d]pyrimidine-6-carboxylic acid(6-chloro-pyridin-3-yl-methyl)-amide hydrochloride]	109	508
N#Cc1cccc(-c2nc(N)c3cc(C(=O)NCCc4cccnc4)sc3n2)c1 [Example 16, 4-Amino-2-(3-cyano-phenyl)-thieno[2,3-d]pyrimidine-6-carboxylic acid(2-pyridin-3-yl-ethyl)-amide]	115	467
Cc1csc(-c2nc(N)c3cc(C(=O)NCCc4cccnc4)sc3n2)n1 [Example 11, 4-Amino-2-(4-methyl-thiazol-2-yl)-thieno[2,3-d]pyrimidine-6-carboxylic acid(2-pyridin-3-yl-ethyl)-amide]	17.9	530
N#Cc1cccc(-c2nc(N)c3cc(C(=O)NCc4ccccn4)sc3n2)c1 [Example 15, 4-Amino-2-(3-cyano-phenyl)-thieno[2,3-d]pyrimidine-6-carboxylic acid(pyridin-2-ylmethyl)-amide]	29	113
N#Cc1cccc(-c2nc(N)c3cc(C(=O)NCc4cccnc4)sc3n2)c1 [Example 19, 4-Amino-2-(3-cyano-phenyl)-thieno[2,3-d]pyrimidine-6-carboxylic acid(pyridin-3-ylmethyl)-amide]	14.2	21.9
Nc1nc(-c2ccc(C3CC3)o2)nc2sc(C(=O)NCc3cccnc3)cc12 [Example 14, 4-Amino-2-(5-cyclopropyl-furan-2-yl)-thieno[2,3-d]pyrimidine-6-carboxylic acid(pyridin-3-ylmethyl)-amide]	1550	> 610
Cc1csc(-c2nc(N)c3cc(C(=O)N4CCN(Cc5ccccn5)CC4)sc3n2)n1 [Example 28, [4-Amino-2-(4-methyl-thiazol-2-yl)-thieno[2,3-d]pyrimidin-6-yl]-(4-pyridin-2-ylmethyl-piperazin-1-yl)-methanone]	160	> 1040
Nc1nc(-c2ncco2)nc2sc(C(=O)NCc3ccccn3)cc12 [Example 24, 4-Amino-2-oxazol-2-yl-thieno[2,3-d]pyrimidine-6-carboxylic acid(pyridin-2-ylmethyl)-amide]	137	422
Nc1nc(-c2ccc(C3CC3)o2)nc2sc(C(=O)N3CCOCC3)cc12 [Example 29, [4-Amino-2-(5-cyclopropyl-furan-2-yl)-thieno[2,3-d]pyrimidin-6-yl]-morpholin-4-yl-methanone]	236	> 1070
Cc1csc(-c2nc(N)c3cc(C(=O)N4CCN(c5nccs5)CC4)sc3n2)n1 [Example 33, [4-Amino-2-(4-methyl-thiazol-2-yl)-thieno[2,3-d]pyrimidin-6-yl]-(4-thiazol-2-yl-piperazin-1-yl)-methanone]	81.9	978
CCN1CCN(C(=O)c2cc3c(N)nc(-c4nc(C)cs4)nc3s2)CC1 [Example 18, [4-Amino-2-(4-methyl-thiazol-2-yl)-thieno[2,3-d]pyrimidin-6-yl]-(4-ethyl-piperazin-1-yl)-methanone hydrochloride]	195	> 948
N#Cc1cccc(-c2nc(N)c3cc(C(=O)NCCN4CCOCC4)sc3n2)c1 [Example 10, 4-Amino-2-(3-cyano-phenyl)-thieno[2,3-d]pyrimidine-6-carboxylic acid(2-morpholin-4-yl-ethyl)-amide]	34.7	52.6
Cc1csc(-c2nc(N)c3cc(C(=O)N4CCN(C(C)(C)C)CC4)sc3n2)n1 [Example 23, [4-Amino-2-(4-methyl-thiazol-2-yl)-thieno[2,3-d]pyrimidin-6-yl]-(4-tert-butyl-piperazin-1-yl)-methanone]	367	> 1310
Nc1nc(-c2ncco2)nc2sc(C(=O)N3CCOCC3)cc12 [Example 6, (4-Amino-2-oxazol-2-yl-thieno[2,3-d]pyrimidin-6-yl)-morpholin-4-yl-methanone]	361	> 10000
Nc1nc(-c2nccs2)nc2sc(C(=O)N3CCOCC3)cc12 [Example 4, (4-Amino-2-thiazol-2-yl-thieno[2,3-d]pyrimidin-6-yl)-morpholin-4-yl-methanone]	80.9	1430
Cc1csc(-c2nc(N)c3cc(C(=O)NCc4cccnc4)sc3n2)n1 [Example 27, 4-Amino-2-(4-methyl-thiazol-2-yl)-thieno[2,3-d]pyrimidine-6-carboxylic acid(pyridin-3-ylmethyl)-amide]	40.3	245
Cc1cc(-c2nc(N)c3cc(C(=O)NCc4cccnc4)sc3n2)no1 [Example 21, 4-Amino-2-(5-methyl-isoxazol-3-yl)-thieno[2,3-d]pyrimidine-6-carboxylic acid(pyridin-3-ylmethyl)-amide]	310	26.9
CC(C)(C)N1CCN(C(=O)c2cc3c(N)nc(-c4cccc(C#N)c4)nc3s2)CC1 [Example 9, 3-[4-Amino-6-(4-tert-butyl-piperazine-1-carbonyl)-thieno[2,3-d]pyrimidin-2-yl]-benzonitrile]	94.2	603
CC(C)c1ccc(-c2nc(N)c3cc(C(=O)N4CCOCC4)sc3n2)o1 [Example 30, [4-Amino-2-(5-isopropyl-furan-2-yl)-thieno[2,3-d]pyrimidin-6-yl]-morpholin-4-yl-methanone]	236	522
